{"source": "ChEMBL document CHEMBL5357011", "about": "“Chemical Catalysis Guides Structural Identification for the Major In Vivo Metabolite of the BET Inhibitor JQ1” (ACS Med Chem Lett, 2024)", "type_in_all_cases": "ADME, organism-based", "conditions_in_all_cases": "in vivo", "key": {"[1]": {"experiment": "Observed apparent oral clearance in female C57BL/6NJ mouse at 50 mg/kg, ip measured upto 24 hrs by UHPLC-ESI-Q-Orbitrap-MS analysis"}, "[2]": {"experiment": "Observed apparent oral clearance in male C57BL/6NJ mouse at 50 mg/kg, ip measured upto 24 hrs by UHPLC-ESI-Q-Orbitrap-MS analysis"}, "[3]": {"experiment": "AUC (0 to t) in female C57BL/6NJ mouse at 50 mg/kg, ip measured upto 24 hrs by UHPLC-ESI-Q-Orbitrap-MS analysis", "set-up": "dose 50 mg/kg, time < 24 hrs, route ip"}, "[4]": {"experiment": "AUC (0 to t) in male C57BL/6NJ mouse at 50 mg/kg, ip measured upto 24 hrs by UHPLC-ESI-Q-Orbitrap-MS analysis", "set-up": "time < 24 hrs, dose 50 mg/kg, route ip"}}}
{"smiles": "Cc1sc2c(c1C)C(c1ccc(Cl)cc1)=N[C@@H](CC(=O)OC(C)(C)C)c1nnc(C)n1-2", "values": [{"measurement": "CL/F", "setting": "[1]", "result": "1.22 (mg)/(ug/ml)/hr"}, {"measurement": "CL/F", "setting": "[2]", "result": "0.661 (mg)/(ug/ml)/hr"}, {"measurement": "AUCt", "setting": "[3]", "result": 41.1, "unit": "µg/mL/h"}, {"measurement": "AUCt", "setting": "[4]", "result": 75.1, "unit": "µg/mL/h"}]}
{"smiles": "[2H]C([2H])([2H])c1sc2c(c1C)C(c1ccc(Cl)cc1)=N[C@@H](CC(=O)OC(C)(C)C)c1nnc(C)n1-2", "values": [{"measurement": "CL/F", "setting": "[2]", "result": "0.528 (mg)/(ug/ml)/hr"}, {"measurement": "AUCt", "setting": "[3]", "result": 50.5, "unit": "µg/mL/h"}, {"measurement": "AUCt", "setting": "[4]", "result": 94.2, "unit": "µg/mL/h"}]}
